Calls of active or inactive are those of the source. No cut-off for these calls is given here.
Columns and labels:
[1] = molecular target: 3',5'-cyclic-AMP phosphodiesterase 4B (Homo sapiens, UniProt Q07343); assay: Inhibition of PDE4B
[2] = molecular target: cGMP-inhibited 3',5'-cyclic phosphodiesterase 3A (Homo sapiens, UniProt Q14432); assay: Inhibition of PDE3A
Sequence of cGMP-inhibited 3',5'-cyclic phosphodiesterase 3A (Q14432 whole entry): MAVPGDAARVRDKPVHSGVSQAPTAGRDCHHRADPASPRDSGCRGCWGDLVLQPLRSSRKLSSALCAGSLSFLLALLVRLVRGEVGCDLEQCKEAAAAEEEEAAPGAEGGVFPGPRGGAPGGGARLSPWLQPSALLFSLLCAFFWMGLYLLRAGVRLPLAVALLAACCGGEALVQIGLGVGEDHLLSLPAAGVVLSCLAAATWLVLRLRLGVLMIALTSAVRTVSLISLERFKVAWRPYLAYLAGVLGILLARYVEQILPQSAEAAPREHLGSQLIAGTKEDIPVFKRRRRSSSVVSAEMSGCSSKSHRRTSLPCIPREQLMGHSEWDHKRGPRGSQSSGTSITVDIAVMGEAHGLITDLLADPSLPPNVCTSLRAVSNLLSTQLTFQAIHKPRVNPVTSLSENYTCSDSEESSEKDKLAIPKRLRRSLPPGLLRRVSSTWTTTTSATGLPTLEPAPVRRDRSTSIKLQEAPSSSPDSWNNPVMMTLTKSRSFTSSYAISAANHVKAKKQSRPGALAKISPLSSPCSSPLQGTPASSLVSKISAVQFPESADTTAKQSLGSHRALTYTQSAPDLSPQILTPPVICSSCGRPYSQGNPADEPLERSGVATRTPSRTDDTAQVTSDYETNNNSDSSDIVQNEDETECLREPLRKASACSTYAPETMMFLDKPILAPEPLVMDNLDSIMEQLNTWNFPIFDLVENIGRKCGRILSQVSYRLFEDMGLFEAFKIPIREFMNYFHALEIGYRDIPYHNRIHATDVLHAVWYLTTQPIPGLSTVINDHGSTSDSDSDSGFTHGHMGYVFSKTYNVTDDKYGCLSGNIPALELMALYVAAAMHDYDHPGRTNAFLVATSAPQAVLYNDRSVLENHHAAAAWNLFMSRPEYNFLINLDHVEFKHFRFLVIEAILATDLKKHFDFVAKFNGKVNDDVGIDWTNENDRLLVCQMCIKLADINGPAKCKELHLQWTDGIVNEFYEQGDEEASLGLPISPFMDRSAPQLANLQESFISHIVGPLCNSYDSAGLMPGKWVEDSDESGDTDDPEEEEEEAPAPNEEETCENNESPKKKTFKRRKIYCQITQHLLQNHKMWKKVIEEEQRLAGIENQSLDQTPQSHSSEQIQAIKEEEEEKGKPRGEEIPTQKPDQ

Sequence of 3',5'-cyclic-AMP phosphodiesterase 4B (Q07343 whole entry): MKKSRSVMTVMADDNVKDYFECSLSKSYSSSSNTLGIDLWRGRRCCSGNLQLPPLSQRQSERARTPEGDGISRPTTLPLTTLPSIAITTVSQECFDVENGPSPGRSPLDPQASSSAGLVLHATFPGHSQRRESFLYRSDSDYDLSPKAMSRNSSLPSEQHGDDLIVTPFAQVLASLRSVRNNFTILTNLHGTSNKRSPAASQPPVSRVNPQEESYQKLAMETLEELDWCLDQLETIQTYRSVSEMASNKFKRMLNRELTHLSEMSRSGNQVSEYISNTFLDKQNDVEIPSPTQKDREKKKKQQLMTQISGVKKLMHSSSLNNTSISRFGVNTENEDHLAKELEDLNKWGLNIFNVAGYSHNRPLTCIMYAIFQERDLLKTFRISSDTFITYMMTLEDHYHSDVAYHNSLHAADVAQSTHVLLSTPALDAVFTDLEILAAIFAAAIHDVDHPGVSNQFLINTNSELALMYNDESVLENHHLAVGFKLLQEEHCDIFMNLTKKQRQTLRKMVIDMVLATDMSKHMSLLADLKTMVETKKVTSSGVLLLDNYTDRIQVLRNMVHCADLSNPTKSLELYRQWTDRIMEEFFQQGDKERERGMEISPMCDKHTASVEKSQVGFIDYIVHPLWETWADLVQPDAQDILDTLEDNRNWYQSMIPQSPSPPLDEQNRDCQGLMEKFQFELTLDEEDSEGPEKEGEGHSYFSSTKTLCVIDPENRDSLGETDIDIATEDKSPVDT

Row | SMILES | IC50 [1] | Activity [2] | Activity [1] | IC50 [2]
1 | CCN1C(=O)/C(=C/c2ccc(OC)c(O)c2)SC1=S | 11.2 µM | inactive |  | 
2 | COc1cccc(/C=C2\SC(=S)NC2=O)c1 |  |  | inactive | 
3 | COc1ccc(/C=C2\SC(=N)NC2=O)cc1OC1CCCC1 [PSEUDOTHIOHYDANTOIN] | 0.31 µM | inactive |  | 
4 | COc1ccc(/C=C2\SC(=S)NC2=O)cc1OC1CCCCC1 | 1.94 µM | inactive |  | 
5 | COc1ccc(/C=C2\SC(=S)NC2=O)cc1OC (stereo in doubt; 2a) | 17.9 µM |  |  | 10.5 µM
6 | CCOc1cc(/C=C2\SC(=S)NC2=O)ccc1OC | 5.3 µM |  |  | 39.8 µM
7 | C=CCN1C(=O)/C(=C/c2ccc(OC)c(OC3CCCC3)c2)SC1=S | 4.13 µM | inactive |  | 
8 | COc1ccc(/C=C2\SC(=S)NC2=O)cc1 |  |  | inactive | 
9 | COc1ccc(/C=C2\SC(=S)N(C)C2=O)cc1OC |  |  | inactive | 
10 | CCN1C(=O)/C(=C/c2ccc(O)c(OC)c2)SC1=S | 0.74 µM | inactive |  | 
11 | CCOc1ccc(/C=C2\SC(=S)NC2=O)cc1OC1CCCC1 | 1.85 µM |  |  | 25 µM
12 | COc1ccc(/C=C2\SC(=O)NC2=O)cc1OC | 14.1 µM | inactive |  | 
13 | COc1ccc(/C=C2\SC(=S)N(C)C2=O)cc1OC1CCCC1 | 2.87 µM | inactive |  | 
14 | COc1cc(/C=C2\SC(=S)NC2=O)ccc1O |  |  | inactive | 
15 | COc1ccc(/C=C2\SC(=S)NC2=O)cc1O |  |  | inactive | 
16 | COc1ccc(/C=C2\SC(=S)N(CC(=O)O)C2=O)cc1OC |  |  | inactive | 
17 | COc1ccc(/C=C2\SC(=S)NC2=O)cc1OC (stereo in doubt; 10a) [listing 1 of 2 here] |  | inactive |  | 
18 | COc1ccc(/C=C2\SC(=S)NC2=O)cc1OC (stereo in doubt; 10a) [listing 2 of 2 here] | 28.3 µM |  |  | 

Row | SMILES | IC50 [1] | Activity [2] | Activity [1] | IC50 [2]
19 | O=C1NC(=S)S/C1=C\c1ccc(O)c(O)c1 |  |  | inactive | 
20 | O=C1NC(=S)S/C1=C\c1ccc2c(c1)OCO2 |  |  | inactive | 
21 | CCOc1ccc(/C=C2\SC(=S)NC2=O)cc1OC | 6.91 µM |  |  | 9.46 µM
22 | COc1cccc(/C=C2\SC(=S)NC2=O)c1OC | 54.7 µM |  |  | 
23 | COc1ccc(/C=C2\SC(=S)NC2=O)cc1OCc1ccccc1 |  |  | inactive | 
24 | C=CCOc1cc(/C=C2\SC(=S)NC2=O)ccc1OC | 3.08 µM | inactive |  | 
25 | COc1ccc(C2CNC(=O)C2)cc1OC1CCCC1 (stereo not drawn) |  | inactive |  | 
26 | COc1ccc(/C=C2\SC(=O)NC2=O)cc1OC1CCCC1 | 1.09 µM | inactive |  | 
27 | COc1cc(/C=C2\SC(=S)NC2=O)cc(OC)c1OC | 64.8 µM |  |  | 
28 | CCOc1ccc(/C=C2\SC(=S)NC2=O)cc1OCC | 6.51 µM |  |  | 80 µM
29 | COc1ccc(/C=C2\SC(=S)NC2=O)cc1OC1CCCC1 | 0.89 µM |  |  | 10.8 µM
30 | COc1ccc(/C=C2\SC(=O)N(Cc3ccccc3)C2=O)cc1OC1CCCC1 |  |  | inactive | 
31 | CCN1C(=O)/C(=C/c2ccc(OC)c(OC)c2)SC1=S |  |  | inactive | 
32 | COc1cc(/C=C2\SC(=S)NC2=O)ccc1OC1CCCC1 | 30.4 µM |  |  | 28.5 µM
33 | COc1ccc(/C=C2\SC(=S)N(CC(=O)O)C2=O)cc1OC1CCCC1 | 3.07 µM | inactive |  | 
34 | COc1ccc(/C=C2\CCNC2=O)cc1OC1CCCC1 | 4.01 µM | inactive |  | 
35 | C=CCN1C(=O)/C(=C/c2ccc(OC)c(OC)c2)SC1=S |  |  | inactive | 

Source: ChEMBL document CHEMBL1142363, “Rhodanine derivatives as novel inhibitors of PDE4” (Bioorg Med Chem Lett, 2008)
